The source made the active and inactive calls. The calls are words filed in the database; no cut-off is given here.
Experiments:
Drosophila melanogaster [1] = experiment: Disruption of mitochondria in insecticide-susceptible Drosophila melanogaster Hikone-R assessed as increase in cytochrome c release from mitochondria to cytosol at 1 mM by western blot analysis; type: functional, organism-based
Drosophila melanogaster [2] = experiment: Disruption of mitochondria in insecticide-susceptible Drosophila melanogaster Canton-S assessed as increase in cytochrome c release from mitochondria to cytosol at 1 mM by western blot analysis; type: functional, organism-based
Drosophila melanogaster [3] = experiment: Inhibition of cytochrome c oxidase in insecticide-resistance Drosophila melanogaster Hikone-R mitochondria at 100 mM using reduced cytochrome c as substrate by microplate spectrophotometer analysis
Drosophila melanogaster [4] = experiment: Inhibition of cytochrome c oxidase in insecticide-susceptible Drosophila melanogaster Canton-S mitochondria at 100 mM using reduced cytochrome c as substrate by microplate spectrophotometer analysis
[5] = Inhibition of cytochrome c oxidase in insecticide-resistance Drosophila melanogaster Hikone-R mitochondria using reduced cytochrome c as substrate by microplate spectrophotometer analysis
[6] = Inhibition of cytochrome c oxidase in insecticide-susceptible Drosophila melanogaster Canton-S mitochondria using reduced cytochrome c as substrate by microplate spectrophotometer analysis
Drosophila melanogaster [7] = settings: Hikone-R, Mitochondria, 10 mM
Description: Inhibition of cytochrome c oxidase in insecticide-resistance Drosophila melanogaster Hikone-R mitochondria at 10 mM using reduced cytochrome c as substrate by microplate spectrophotometer analysis

Drosophila melanogaster [8] = settings: Canton-S, Mitochondria, 10 mM
Description: Inhibition of cytochrome c oxidase in insecticide-susceptible Drosophila melanogaster Canton-S mitochondria at 10 mM using reduced cytochrome c as substrate by microplate spectrophotometer analysis

SMILES	Activity (Drosophila melanogaster [1])	Activity (Drosophila melanogaster [2])	inhibition (Drosophila melanogaster [3]) [%]	inhibition (Drosophila melanogaster [4]) [%]	IC50 [5] [mM]	IC50 [6] [mM]	inhibition (Drosophila melanogaster [7]) [%]	inhibition (Drosophila melanogaster [8]) [%]
CC(C)(C)OC=O	Active	Active	< 8	< 8	–	–	–	–
COC=O	Active	Active	< 8	< 8	–	–	–	–
[N-]=[N+]=[N-] [SODIUM AZIDE]	–	–	–	–	> 16	> 16	–	–
O=C[O-].[Na+] [SODIUM FORMATE]	Active	Active	–	–	> 100	> 100	3	3
CCCCCCOC=O	Active	Active	< 8	< 8	–	–	–	–
CCCOC=O	Active	Active	< 8	< 8	–	–	–	–
CCCCCCCOC=O	Active	Active	< 8	< 8	–	–	–	–
CC(=O)[O-].[Na+] [SODIUM ACETATE]	–	–	–	–	> 100	> 100	–	–
CCC(=O)[O-].[Na+] [SODIUM PROPIONATE]	–	–	–	–	> 100	> 100	–	–
CCCCCC[C@H]1C(=O)O[C@H](C)[C@H](NC(=O)c2cccc(NC=O)c2O)C(=O)O[C@@H](C)[C@@H]1OC(=O)CC(C)C	Active	Active	–	–	–	–	–	–
O=COCCOC=O	Active	Active	< 8	< 8	–	–	–	–
C=C(C)[C@H]1Cc2c(ccc3c2O[C@@H]2COc4cc(OC)c(OC)cc4[C@@H]2C3=O)O1	Active	Active	–	–	–	–	–	–
CCOC=O	Active	Active	< 8	< 8	–	–	–	–
CCCCOC=O	Active	Active	< 8	< 8	–	–	–	–
CC1(C)CNC(=NN=C(/C=C/c2ccc(C(F)(F)F)cc2)/C=C/c2ccc(C(F)(F)F)cc2)NC1 [HYDRAMETHYLNON]	–	–	–	–	0.48	0.47	–	–
